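Compound exposure: 48 hours, 5 concentrations, 96-well plates. GI50: concentration for 50% inhibition of growth.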 The source made the active and inactive calls. Rule as the data show it: active = GI50 up to about 1.1 µM and inactive = higher.

Some test systems named below: SN12C; U-251; MDA-MB-231; 786-0; A549; RXF 393; BT-549; M14; NCI/ADR-RES; A498; SW-620; OVCAR-8; SK-MEL-2; NCI-H460; TK-10; COLO 205; EKVX; SNB-19; NCI-H226; Hs-578T.
What all share (test): DTP human tumour cell line panel, 48 h

Usually GI50 stands for the concentration at which growth is held to half of that of the control. Consider `Cn1c(Nc2ccccc2)c(/C=N\c2ccccc2)c(=O)n(C)c1=O`, for which the GI50 in the experiment with SN12C is 69.3 µM (inactive); in the experiment on U-251, 30 µM (inactive); in the experiment with MDA-MB-231 it was 61.4 µM (inactive); in the experiment on 786-0 it was 65.3 µM (inactive); in the experiment on A549, > 100 µM (inactive); in the experiment with RXF 393, 75.9 µM (inactive). Also, the GI50 in the experiment with BT-549 was > 100 µM (inactive); with M14, > 100 µM (inactive); in the experiment on NCI/ADR-RES it was 41 µM (inactive); in the experiment with A498, 80 µM (inactive); in the experiment with SW-620, > 100 µM (inactive); with OVCAR-8, 39.7 µM (inactive). Moreover, the GI50 with SK-MEL-2 is > 100 µM (inactive); in the experiment on NCI-H460, 56.2 µM (inactive); with TK-10, > 100 µM (inactive).

In the case of `CCCCC(=O)Nc1ccc2cc(C(=O)OC)c(=O)[nH]c2n1`, the GI50 in the experiment on SN12C, in the experiment with COLO 205, with U-251, in the experiment on MDA-MB-231, in the experiment with 786-0 and in the experiment on A549 was > 100 µM (inactive) in each case. The GI50 in the experiment with RXF 393, in the experiment with BT-549, in the experiment with M14, with EKVX, with NCI/ADR-RES and with A498 was > 100 µM (inactive) throughout. Moreover, the GI50 with SNB-19, with SW-620, in the experiment on NCI-H226, in the experiment with OVCAR-8, in the experiment on SK-MEL-2 and with NCI-H460 was > 100 µM (inactive) in each case. Besides, the GI50 in the experiment on TK-10 is > 100 µM (inactive).

As for `CNCCN[C@@H]1c2cc3c(cc2[C@@H](c2cc(OC)c(O)c(OC)c2)[C@H]2C(=O)OC[C@@H]21)OCO3`, the GI50 in the experiment with SN12C is 0.0738 µM (active); in the experiment on COLO 205 it was 1.23 µM (inactive); in the experiment on U-251, 0.125 µM (active); with MDA-MB-231, 0.37 µM (active); in the experiment with 786-0, 0.144 µM (active); with A549, 0.0708 µM (active). Besides, the GI50 in the experiment with RXF 393 is 0.229 µM (active); in the experiment on BT-549, 0.207 µM (active); in the experiment on M14, 0.394 µM (active); in the experiment with EKVX, 2.23 µM (inactive); in the experiment with NCI/ADR-RES, 68.2 µM (inactive); in the experiment on SNB-19 it was 0.291 µM (active). In addition, the GI50 in the experiment on SW-620 is 0.269 µM (active); with NCI-H226, 0.0946 µM (active); in the experiment with OVCAR-8 it was 0.252 µM (active); in the experiment on SK-MEL-2, 0.44 µM (active); in the experiment on NCI-H460, < 0.01 µM (active); with TK-10, 1.49 µM (inactive).

Regarding `COc1cc(OC)c(NC2=NCCO2)cc1Cl`, the GI50 in the experiment with SN12C was 44.4 µM (inactive); in the experiment on COLO 205, 18.8 µM (inactive); in the experiment with U-251 it was 39.7 µM (inactive); in the experiment with MDA-MB-231 it was 26.1 µM (inactive); in the experiment with 786-0, 30.1 µM (inactive); in the experiment with A549, 46.3 µM (inactive). Moreover, the GI50 in the experiment on RXF 393 was 46.1 µM (inactive); in the experiment with M14, 31.3 µM (inactive); in the experiment with Hs-578T, 61.7 µM (inactive); with EKVX, 61.9 µM (inactive); in the experiment with NCI/ADR-RES it was 32.4 µM (inactive); in the experiment with A498 it was 32.7 µM (inactive). For the same molecule, the GI50 is > 100 µM (inactive) with SNB-19; > 100 µM (inactive) with SW-620; 25.7 µM (inactive) in the experiment on NCI-H226; 83 µM (inactive) in the experiment with OVCAR-8; 17.3 µM (inactive) in the experiment on SK-MEL-2; 21.2 µM (inactive) in the experiment with NCI-H460. Also, the GI50 in the experiment with TK-10 was 60.3 µM (inactive).

Take `CC(C)=NN/C=N\C(C#N)=C(/N)C#N`: the GI50 in the experiment on COLO 205, in the experiment on U-251, in the experiment with 786-0, in the experiment with A549, in the experiment on RXF 393 and in the experiment on BT-549 was > 100 µM (inactive) throughout. In addition, the GI50 in the experiment on M14, in the experiment with EKVX, with NCI/ADR-RES, with SNB-19, in the experiment with SW-620 and in the experiment on NCI-H226 was > 100 µM (inactive) throughout. Besides, the GI50 in the experiment on OVCAR-8, in the experiment with SK-MEL-2, with NCI-H460 and in the experiment on TK-10 was > 100 µM (inactive) each time.

Turning to `CCOC(=O)C1CSCCSC1`, the GI50 in the experiment on SN12C, in the experiment on COLO 205, in the experiment on U-251, with MDA-MB-231, with A549 and with RXF 393 was > 100 µM (inactive) throughout. In addition, the GI50 was > 100 µM (inactive) in the experiment on Hs-578T; > 100 µM (inactive) in the experiment on NCI/ADR-RES; 44.3 µM (inactive) in the experiment with A498; > 100 µM (inactive) in the experiment with SNB-19; > 100 µM (inactive) with SW-620; > 100 µM (inactive) with NCI-H226. Besides, the GI50 is > 100 µM (inactive) with OVCAR-8, 17.5 µM (inactive) with NCI-H460 and > 100 µM (inactive) with TK-10.

For `COc1ccc2c(c1)OCc1c-2oc2ccccc2c1=O`, the GI50 in the experiment with SN12C is > 100 µM (inactive); in the experiment on COLO 205 it was > 100 µM (inactive); in the experiment with U-251, 35.8 µM (inactive); in the experiment on MDA-MB-231 it was 30.1 µM (inactive); with 786-0 it was 45.7 µM (inactive); in the experiment with A549 it was > 100 µM (inactive). In addition, the GI50 in the experiment with BT-549, with M14, with EKVX, with NCI/ADR-RES, in the experiment with A498 and in the experiment on NCI-H226 was > 100 µM (inactive) throughout. In addition, the GI50 in the experiment on OVCAR-8, with SK-MEL-2 and in the experiment on TK-10 was > 100 µM (inactive) in each case.

For the molecule `CCOC(=O)C1=CC(C)(C(=O)OCC)Nc2c(nc(SC)n(C)c2=O)N1` (stereo not drawn), the GI50 in the experiment on SN12C, in the experiment with COLO 205, in the experiment on U-251, in the experiment on MDA-MB-231, in the experiment on 786-0 and in the experiment with A549 was > 10 µM (inactive) in each case. The GI50 with BT-549, with M14, in the experiment with EKVX, in the experiment on NCI/ADR-RES, with A498 and in the experiment with SNB-19 was > 10 µM (inactive) each time. Moreover, the GI50 with SW-620, in the experiment on NCI-H226, in the experiment on OVCAR-8, with SK-MEL-2, with NCI-H460 and with TK-10 was > 10 µM (inactive) in each case.

As for `CCCCCCCCCCCCCCCCNc1ccn(C2CC(OP(=O)(O)OCC3OC(n4cc(CC)c(=O)[nH]c4=O)CC3O)C(CO)O2)c(=O)n1` (stereo not drawn), the GI50 was 41.5 µM (inactive) with SN12C; 26 µM (inactive) in the experiment on COLO 205; 26.8 µM (inactive) with U-251; 35.2 µM (inactive) in the experiment on MDA-MB-231; 83.2 µM (inactive) in the experiment with 786-0; 22 µM (inactive) in the experiment on A549. In addition, the GI50 with RXF 393 was 13.7 µM (inactive); in the experiment with M14, 17.8 µM (inactive); with Hs-578T, 22.1 µM (inactive); in the experiment with EKVX, 43 µM (inactive); in the experiment with NCI/ADR-RES, 27.9 µM (inactive); in the experiment with A498, > 100 µM (inactive). For the same molecule, the GI50 is 16 µM (inactive) in the experiment with SNB-19; 23.8 µM (inactive) in the experiment with SW-620; 47.2 µM (inactive) in the experiment with NCI-H226; 20 µM (inactive) in the experiment with OVCAR-8; 19.4 µM (inactive) in the experiment with SK-MEL-2; 77.3 µM (inactive) in the experiment with TK-10.

For the molecule `Nc1ccccc1C#CC(=O)c1cccc(C(F)(F)F)c1`, the GI50 is 2.06 µM (inactive) with SN12C; 1.89 µM (inactive) with COLO 205; 1.95 µM (inactive) with U-251; 1.95 µM (inactive) in the experiment on MDA-MB-231; 2.1 µM (inactive) in the experiment with 786-0; 16.8 µM (inactive) in the experiment with A549. In addition, the GI50 is 2.25 µM (inactive) with RXF 393; 2.22 µM (inactive) in the experiment on M14; 2.56 µM (inactive) in the experiment with Hs-578T; 16.3 µM (inactive) with EKVX; 4.89 µM (inactive) with NCI/ADR-RES; 18.5 µM (inactive) with A498. In addition, the GI50 was 14.5 µM (inactive) with SNB-19; 2.21 µM (inactive) with SW-620; 3.58 µM (inactive) in the experiment on NCI-H226; 1.18 µM (inactive) in the experiment on SK-MEL-2; 19.3 µM (inactive) in the experiment on NCI-H460; 17.2 µM (inactive) in the experiment with TK-10.

In the case of `O=c1c2ccc(S(=O)(=O)c3ccc4c(=O)n5c6ccccc6nc5c5cccc3c45)c3cccc(c32)c2nc3ccccc3n12`, the GI50 is > 100 µM (inactive) with SN12C; > 100 µM (inactive) in the experiment with COLO 205; 9.06 µM (inactive) in the experiment with U-251; 19.4 µM (inactive) in the experiment with MDA-MB-231; 29.5 µM (inactive) in the experiment with 786-0; > 100 µM (inactive) in the experiment on A549. For the same molecule, the GI50 is 14.3 µM (inactive) with RXF 393; 20 µM (inactive) in the experiment with BT-549; > 100 µM (inactive) in the experiment with M14; 43.9 µM (inactive) in the experiment with EKVX; > 100 µM (inactive) with NCI/ADR-RES; 16.6 µM (inactive) in the experiment with SNB-19. Moreover, the GI50 with NCI-H226 is 41.6 µM (inactive); in the experiment on OVCAR-8, 47.9 µM (inactive); with SK-MEL-2, 21.3 µM (inactive); in the experiment with NCI-H460, > 100 µM (inactive); in the experiment on TK-10, 21.8 µM (inactive).

Values taken from ChEMBL document CHEMBL1201862, “PubChem BioAssay data set” (2004).
